For data set [1] the following is noted: amine bond, Cs2CO3.
Data set [2] concerns SK-BR-3. Briefly: Antiproliferation assay SK-BR-3 (Assay 7). Format: cell-based. The conditions noted are these: Homo sapiens, SK-BR-3, 72 h, SK-BR-3 cells, CellTiter-Glo, single determinations, read-out: IC50 Antiproli SK-BR-3. As for the experimental part:
(§1) Assessment of the Anti-Proliferative Effect of Compounds in Different Cell Lines
(§2) The impact of compounds on the proliferation of different cell lines was assessed using the CellTiter-Glo® Luminescent Cell Viability reagent from Promega (G7573).
(§3) In parallel, cells were plated in a reference (day 0) plate for time zero determination.
(§4) Rim wells were excluded. The cells were incubated for 72 h hours in a humidified incubator at 37° C. The day 0 plate was measured by adding 30 μL/well of CTG solution (CellTiter-Glo® Luminescent Cell Viability reagent, Promega G7573) to time zero wells in the reference plate followed by a 10 minutes incubation and luminescence reading at 0.1 ms. using the PHERAstar FS microplate reader (BMG Labtech).
(§5) After 72 h incubation, the treated plates were measured in the same way as the day 0 plate mentioned above.

The target of data set [3] is MCL-1 (Homo sapiens (Human), UniProt Q07820, K194A/K197A/R201A). Briefly: Protein-protein interaction assay MCL-1/Noxa BH3 peptide (MCL-1 assay), TR-FRET. It counts as binding. The conditions noted are these: MCL-1/Noxa BH3 peptide TR-FRET; median. An outline of the steps: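 TR-FRET competition between MBP-MCL-1 (173-321, 1 nM) and biotin-Noxa BH3 peptide (1 nM) with anti-MBP-Eu/streptavidin-XL665; 11 compound levels 0.1 nM–20 μM, 10 min preincubation. Incubated 1 h at 22 °C then overnight at 4 °C, pH 7 Tris buffer. 665/620 ratio normalized to DMSO and no-MCL-1; 4-parameter IC50.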
Chain of MCL-1 (Q07820 whole entry K194A/K197A/R201A, looked up): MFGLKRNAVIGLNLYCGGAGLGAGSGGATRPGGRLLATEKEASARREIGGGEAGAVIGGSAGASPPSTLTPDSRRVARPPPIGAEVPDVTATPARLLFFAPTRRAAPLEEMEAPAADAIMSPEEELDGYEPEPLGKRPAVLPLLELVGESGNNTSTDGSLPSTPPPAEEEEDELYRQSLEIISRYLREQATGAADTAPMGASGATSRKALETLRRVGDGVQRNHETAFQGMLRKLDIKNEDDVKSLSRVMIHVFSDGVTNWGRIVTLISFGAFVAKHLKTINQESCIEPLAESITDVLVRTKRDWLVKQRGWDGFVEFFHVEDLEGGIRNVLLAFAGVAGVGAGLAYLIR

The test system of data set [4] is A2780. Briefly: Antiproliferation assay A2780 (Assay 7). The settings on record: A2780 cells, CellTiter-Glo, single determinations, read-out: IC50 Antiproli A2780. Format: cell-based. An outline of the steps: (§6)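 Luminescent ATP-based viability (CellTiter-Glo) measured after 72 h of compound treatment at 37 °C. A day 0 plate recorded at time zero served as the starting reference for proliferation.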

Data set [5] concerns SUDHL5. In words: Antiproliferation assay SUDHL5 (Assay 7). The settings on record: Homo sapiens, SU-DHL-5, 72 h, SUDHL5 cells, CellTiter-Glo, median, read-out: IC50 Antiproli SUDHL5 [M] (median). Format: cell-based. Summed up:
as §6

Data set [6] has as its system SUDHL5. Briefly: Induction of cytotoxicity, SUDHL5 (Assay 6). The conditions noted are these: Homo sapiens, SU-DHL-5, 5 h, read-out: IC50 Cytotox SUDHL5 [M] (median), SUDHL5 cells, 5 h, CellTiter-Glo.
The subject of data set [7] is SUDHL10. Briefly: Induction of caspase-3/7 activity, SUDHL10 (Assay 4). It counts as cell-based. The settings on record: Homo sapiens, SU-DHL10, 3 h, SUDHL10 cells, Caspase-Glo 3/7, median. Summed up: (§7)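 DLBCL lines treated with compounds for 3 h at 37° C.; caspase-3/7 activity read by Caspase-Glo 3/7 luminescence. Medium-only background subtracted; EC50 fitted with bottom fixed at 1 and top set to reference compound's maximal induction.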

The test system of data set [8] is SUDHL5. Briefly: Induction of caspase-3/7 activity, SUDHL5 (Assay 4). Format: cell-based. The conditions noted are these: Homo sapiens, SU-DHL-5, 3 h, SUDHL5 cells, Caspase-Glo 3/7, median. Summed up:
as §7

Data set [9] concerns SUDHL10. In words: Induction of cytotoxicity, SUDHL10 (Assay 6). The conditions noted are these: Homo sapiens, SU-DHL10, 5 h, read-out: IC50 Cytotox SUDHL10 [M] (median), SUDHL10 cells, 5 h, CellTiter-Glo.
Data set [10] relates to AMO-1. Briefly: Antiproliferation assay AMO-1 (Assay 7). It counts as cell-based. The conditions noted are these: AMO-1 cells, CellTiter-Glo, single determinations, read-out: IC50 Antiproli AMO-1. Summed up:
as §6

The test system of data set [11] is MV-4-11. Briefly: Antiproliferation assay MV-4-11 (Assay 7). The conditions noted are these: MV-4-11 cells, CellTiter-Glo, single determinations, read-out: IC50 Antiproli MV-4-11. It counts as cell-based. Summed up: as §6
The subject of data set [12] is SUDHL10. In words: Antiproliferation assay SUDHL10 (Assay 7). It counts as cell-based. The settings on record: Homo sapiens, SU-DHL10; SUDHL10 cells, 72 h, CellTiter-Glo; median; read-out: IC50 Antiproli SUDHL10 [M] (median). The protocol: as §1, §2, §3, §4, §5

Several values for one entry are separate records, joined by “and”; a condition that tells them apart may be missing. Equal values may be shown once. Read-outs that look alike come from different tables or passages of the source.

`CCOC(=O)c1c(CCCO)c2ccc(F)c3c2n1CCCCN(C)Cc1nn(C)c(CC)c1-3` had a ring closure, yield of all isomers in [1] (from CCOC(=O)c1c(CCCO[Si](C)(C)C(C)(C)C)c2ccc(F)c(-c3c(CBr)nn(C)c3CC)c2n1CCCCN(C)C(=O)OC(C)(C)C, acetonitrile, 44.5 mM, 60.0 °C, 6.0 h, 2 steps) of 46%.
Take `CCOC(=O)c1c(CCCOc2cccc3ccccc23)c2ccc(F)c3c2n1CCCCNCc1nn(C)c(C)c1-3`: the ring closure, yield of all isomers in [1] (from CCOC(=O)c1c(CCCOc2cccc3ccccc23)c2ccc(F)c(-c3c(CBr)nn(C)c3C)c2n1CCCCN, DMF, 10.0 mM, 65.0 °C, 17.0 h) worked out at 48.6%.
Take `CCc1c2c(nn1C)COCCCCn1c(C(=O)O)c(CCCOc3cccc4ccccc34)c3ccc(F)c-2c31` (racemic) [Example 6, (rac)-3-ethyl-4-fluoro-2-methyl-7-[3-(naphthalen-1-yloxy)propyl]-2,10,11,12,13,15-hexahydro-pyrazolo[4′,3′:9,10][1,6]oxazacycloundecino[8,7,6-hi]indole-8-carboxylic acid]: the half-inhibitory concentration (IC50) was 7.29 µM in [2]; 0.0011 µM in data set [3]; 10.6 µM and 13.1 µM in data set [4] (72 h, listed as 06); 14.5 µM in [4] (Homo sapiens, A2780, 72 h); 9.8e-07 M in data set [5]; 6.4e-07 M in data set [6]. In addition, the half-maximal inhibitory concentration (IC50) in data set [9] is 1.3e-06 M; in [10] (Homo sapiens, AMO1, 72 h), 2.63 µM; in data set [11] (Homo sapiens, MV4-11, 72 h), 3.83 µM; in data set [11] (72 h, listed as 06), 2.82 µM and 2.76 µM and 2.35 µM. Further, the concentration giving a half-maximal response (EC50) in data set [7] came to 1.1 µM; in data set [8] it was 0.4 µM.
As to `CCc1c2c(nn1C)COCCCCn1c(C(=O)O)c(CCCOc3cccc4cc(F)ccc34)c3ccc(F)c-2c31` (racemic) [Example 21, (rac)-12-ethyl-13-fluoro-1-(3-((6-fluoronaphthalen-1-yl)oxy)propyl)-11-methyl-4,5,6,7,9,11-hexahydropyrazolo[4′,3′:9,10][1]oxa[6]azacycloundecino[8,7,6-hi]indole-2-carboxylic acid], the IC50 in data set [3] is 0.00086 µM; in data set [4] (Homo sapiens, A2780, 72 h), 3.47 µM; in data set [5], 7.3e-07 M; in data set [6] it was 5.1e-07 M; in data set [12] it was 6.3e-07 M; in data set [9], 8.5e-07 M. Besides, the IC50 in data set [10] (72 h) is 0.942 µM and 1.12 µM; in data set [10] (Homo sapiens, AMO1, 72 h), 1.22 µM. The 50% effective concentration (EC50) in [7] turned out to be 0.9 µM; in [8], 0.35 µM.
